Converted amounts (≈) assume the structure as drawn. No end group written: not given here.
Tests used:
in vitro [1] = settings: human, MRC5 pulmonary fibroblasts
Method: (§4) The impact of peptides on the viability of pulmonary fibroblasts (MRC5) was also evaluated. Cells were cultured in Dulbecco’s high-glucose modified Eagle medium (DMEM; Gibco, Thermo Fisher Scientific) supplemented with 10% fetal bovine serum (FBS) in 25-cm^2 flasks. For the assay, cells were seeded into 96-well plates at 5 × 10^4 cells/well. The cells were left to grow at 37°C in a 5% CO2 incubator for 24 h until they reached confluence. […] DMEM and dimethyl sulfoxide (DMSO) were used as the positive and negative controls, respectively. The plates were then incubated at 37°C in a 5% CO2 incubator for 24 h. Resazurin (0.01%; Sigma-Aldrich) was then used to assess the viability of the cells according to the manufacturer’s instructions. After 4 h of incubation at 37°C in a 5% CO2 incubator, the fluorescence intensity was measured using a microplate reader (BioTek) at 570 to 600 nm. The fluorescence values were normalized by the positive control and expressed as a percentage of metabolic activity. Values for the 50% inhibitory concentration (IC50) were calculated. Three independent experiments were performed.

C. gattii = assay: microbe, parasite or virus in culture; settings: 48 h; for C. gattii MIC: 37°C, RPMI 1640, visual reading; for MIC: Cryptococcus gattii, read-out: C. gattii MIC
Method: (§1) C. neoformans ATCC 90112 and C. gattii ATCC 56990 were purchased from the collection of the Laboratory of Clinical Mycology, Faculty of Pharmaceutical Sciences of UNESP, Araraquara, Brazil. Cryptococcus species were grown at 30°C for 48 to 72 h in Sabouraud dextrose agar.
(§2) Anti-Cryptococcus activity was determined by the broth microdilution method according to document M27-A3 from the Clinical and Laboratory Standards Institute ([47]). Briefly, 100 μl of a fungal suspension at […] in RPMI 1640 medium was added to each well of the 96-well plate. Subsequently, 100 μl of MK58911-NH2, MK58911(1–7)-OH, MK58911(8–14)-NH2, MK58911(4–11)-OH, and MH58911 (0.48 to 250 μg/ml); amphotericin B (0.016 to 8 μg/ml); and fluconazole (0.063 to 32 μg/ml), all diluted in RPMI 1640 medium, was added to the plate. The fungal suspension and RPMI 1640 medium were used as the positive and negative controls, respectively. The plate was incubated at 37°C at 150 rpm for 48 h. Next, fungal growth was visually observed, and the MIC was determined. Three independent experiments were performed.

C. neoformans [2] = assay: microbe, parasite or virus in culture; settings: 48 h; for C. neoformans MIC: 37°C, RPMI 1640, visual reading; for MIC: Cryptococcus neoformans, read-out: C. neoformans MIC
Method: as §1, §2

in vitro [3] = settings: mouse, J774 macrophages
Method: as §4
The impact of peptides on the viability of macrophages (J774) was also evaluated as described above for MRC5 cells.

zebrafish embryos = assay: Survival of infected zebrafish embryos under treatment; type: in vivo; settings: treatment at the MIC for 24 h
Method: (§3) A zebrafish embryo infection model by immersion was used, as previously described for C. albicans, with some modifications ([22]). The housing and breeding of the fish used in this study received appropriate institutional approvals (permit number 01.0082.2014). Briefly, 15 zebrafish embryos at 24 h postfertilization (hpf) and cultured in embryo medium at 28°C were used. Embryos were coincubated in wells with C. neoformans at 1 × 10^6 cells/ml by immersion. The plate was incubated at 28°C at 80 rpm for 24 h. Subsequently, the embryos were washed twice with embryo medium and transferred to a 96-well plate (1 embryo/well). Next, 100 μl of MK58911-NH2, amphotericin B, and fluconazole, all diluted in embryo medium and at the MIC, was added to the wells. The plate was incubated at 28°C at 80 rpm for 24 h. After that, the embryos were lysed individually in 2% Triton X-100–PBS using a 26-gauge needle. A […] dilution was performed in PBS, and 10 μl was plated onto Sabouraud dextrose agar containing 50 mg/liter chloramphenicol. […] The groups were tested in triplicate, and two independent experiments were performed. Images of some embryos 4 h after infection with C. neoformans, labeled with calcofluor white, were acquired with an In Cell Analyzer 2000 microscope (GE).

[4] = tested on: C. neoformans biofilm formation; assay: Antibiofilm activity, biofilm formation at 0 h (XTT reduction); type: cell-based, Cryptococcus neoformans
Method: (§5) Briefly, C. neoformans was grown in Sabouraud dextrose broth at 30°C at 150 rpm for 24 h. To evaluate the effect of peptides on biofilm formation, a fungal suspension of 1 × 10^7 cells/ml in minimal medium (20 mg/ml thiamine, 30 mM glucose, 26 mM glycine, 20 mM MgSO4·7H2O, 58.8 mM KH2PO4) was prepared, and 100 μl of the suspension was added to individual wells of 96-well polystyrene plates (TPP, Switzerland). […] The plate was incubated at 37°C for 48 h. To evaluate the effect of the peptides on the mature biofilm, 100 μl of the fungal suspension was added to individual wells of a 96-well plate, and the plate was incubated at 37°C for 48 h. After that period, the supernatant was removed, and the peptides and drugs were added. The plate was again incubated at 37°C for 48 h. The metabolic activity of the biofilms was quantified by the 2,3-bis(2-methoxy-4-nitro-5-sulfophenyl)-5-[(phenylamino)carbonyl]-2H-tetrazolium hydroxide (XTT) reduction assay. For this, a solution with 50 μl of XTT (1 mg/ml in PBS) and 4 μl of menadione (1 mM in ethanol; Sigma-Aldrich, São Paulo, SP, Brazil) was added to each well of the 96-well plate. After 3 h of incubation at 37°C, the fluorescence intensity was measured using a microplate reader (BioTek) at 490 nm. Subsequently, the percentage of metabolic activity of the biofilm treated with peptides/drugs was compared to that of the untreated control. […]

[5] = tested on: intramacrophage C. neoformans; assay: Intramacrophage activity (J774 macrophages infected with C. neoformans, CFU); type: cell-based, Cryptococcus neoformans; settings: treatment at the MIC, 24 h; control 4.5 × 10^3 CFU/well
Method: The medium was used as a positive control. […] Three independent experiments were performed.

[6] = tested on: C. neoformans mature biofilm; assay: Antibiofilm activity, mature biofilm at 48 h (XTT reduction); type: cell-based, Cryptococcus neoformans
Method: as §5

C. neoformans [7] = assay: Zebrafish embryo immersion infection model, fungal burden (CFU); type: in vivo, zebrafish embryos; settings: immersion infection 1 × 10^6 cells/ml, treatment at the MIC for 24 h
Method: as §3

INWLKIA-OH [MK58911(1–7)-OH, INWLKIA-OH]
IC50 at 24 h (in vitro [1]): > 500 µg/mL

INWLHIAHHVHGML-NH2 [MH58911-NH2, INWLHIAHHVHGML-NH2]
C. gattii MIC (C. gattii): >250 µg/mL | C. neoformans MIC (C. neoformans [2]): >250 µg/mL | IC50 at 24 h (in vitro [1]): > 500 µg/mL | IC50 at 24 h (in vitro [3]): > 250 µg/mL

KKVKGML-NH2 [MK58911(8–14)-NH2, KKVKGML-NH2]
C. gattii MIC (C. gattii): >250 µg/mL | C. neoformans MIC (C. neoformans [2]): >250 µg/mL | IC50 at 24 h (in vitro [1]): > 500 µg/mL

INWLKIAKKVKGML-NH2 [MK58911-NH2, INWLKIAKKVKGML-NH2]
C. gattii MIC (C. gattii): 15.63 µg/mL | C. neoformans MIC (C. neoformans [2]): 31.25 µg/mL | IC50 at 24 h (in vitro [1]): > 500 µg/mL | embryo survival under treatment (zebrafish embryos): All embryos survived | IC50 at 24 h (in vitro [3]): 62.5 µg/mL

LKIAKKVK-OH [MK58911(4–11)-OH, LKIAKKVK-OH]
IC50 at 24 h (in vitro [1]): > 500 µg/mL

C[C@@H]1[C@H](O)[C@@H](C)/C=C/C=C/C=C/C=C/C=C/C=C/C=C/[C@H](O[C@@H]2O[C@H](C)[C@@H](O)[C@H](N)[C@@H]2O)C[C@@H]2O[C@](O)(C[C@@H](O)C[C@@H](O)[C@H](O)CC[C@@H](O)C[C@@H](O)CC(=O)O[C@H]1C)C[C@H](O)[C@H]2C(=O)O [Amphotericin B]
MIC (C. gattii): 0.125 µg/mL (≈ 0.135 µM) | MIC (C. neoformans [2]): 0.125 µg/mL (≈ 0.135 µM) | concentration at which formation of C. neoformans biofilms can be prevented [4]: > 0.5 µg/mL | intramacrophagic fungal burden (average) [5]: 1.1 × 10^3 CFU/well | concentration at which mature biofilms can be inhibited ([6]; mature biofilms): > 2 µg/mL | fungal burden (CFU) of embryos' chorion vs untreated control (C. neoformans [7]): significant reduction in CFU

OC(Cn1cncn1)(Cn1cncn1)c1ccc(F)cc1F [Fluconazole]
MIC (C. gattii): 8 µg/mL (≈ 26.1 µM) | MIC (C. neoformans [2]): 1 µg/mL (≈ 3.27 µM) | intramacrophagic fungal burden (average) [5]: 1.8 × 10^3 CFU/well | susceptibility of C. neoformans biofilms ([6]; biofilms in vitro, corroborates ref 13): resistant | fungal burden (CFU) of embryos' chorion vs untreated control (C. neoformans [7]): did not reduce the fungal burden

From article PMC8597745, “The Antimicrobial Peptide MK58911-NH2 Acts on Planktonic, Biofilm, and Intramacrophage Cells of Cryptococcus neoformans” (Antimicrobial Agents and Chemotherapy, 2021)
